Test results taken from article PMC11062899, “De novo development of small cyclic peptides that are orally bioavailable” (Nature Chemical Biology, 2023).
Several values for one entry are separate records, joined by “and”; a condition that tells them apart may be missing. Equal values may be shown once.

Assay: Metabolic stability in rat liver microsomes (RLMs)
Settings: for TIC value of compound, 0 min, R1 / TIC value of compound, 0 min, R3 / TIC value of compound, 5 min, R1 / TIC value of compound, 5 min, R3 / TIC value of compound, 15 min, R1 / TIC value of compound, 15 min, R3 / TIC value of compound, 30 min, R1 / TIC value of compound, 30 min, R3 / TIC value of compound, 60 min, R1 / TIC value of compound, 60 min, R3: rat liver microsomes; for microsomal CLint / half-life: rat; for TIC value of compound, metabolic stability RLM: replicates R1-R3
[1] = CL (ul/min/mg protein), R1, RLM CL, replicate R1, unrounded
[2] = CL (ul/min/mg protein), R2, RLM CL, replicate R2, unrounded
[3] = CL (ul/min/mg protein), R3, RLM CL, replicate R3, unrounded
[4] = Half Life (min), R1, RLM metabolic stability, replicate R1
[5] = Half Life (min), R2, RLM metabolic stability, replicate R2
[6] = Half Life (min), R3, RLM metabolic stability, replicate R3
[7] = microsomes, Metabolic stability: Half life T1/2 (min), RLMs, mean and SD, three measurements
[8] = microsomes, Metabolic stability: RLM CL (ul/min/mg), RLMs, mean and SD, three measurements
[9] = microsomes, RLM CL, Average, average of R1-R3
[10] = microsomes, RLM CL, R1, RLM CL, replicate R1, summary block
[11] = microsomes, RLM CL, R2, RLM CL, replicate R2, summary block
[12] = microsomes, RLM CL, R3, RLM CL, replicate R3, summary block
[13] = microsomes, CL (ul/min/mg protein), R1, RLM CL, replicate R1, unrounded
[14] = microsomes, CL (ul/min/mg protein), R2, RLM CL, replicate R2, unrounded
[15] = microsomes, CL (ul/min/mg protein), R3, RLM CL, replicate R3, unrounded
[16] = microsomes, Half Life (min), R1, RLM metabolic stability, replicate R1
[17] = microsomes, Half Life (min), R2, RLM metabolic stability, replicate R2
[18] = microsomes, Half Life (min), R3, RLM metabolic stability, replicate R3

Structure (SMILES) | TIC value of compound, 0 min, R1 (0 min, replicate R1) | TIC value of compound, 0 min, R3 (0 min, replicate R3) | TIC value of compound, 5 min, R1 (5 min, replicate R1) | TIC value of compound, 5 min, R3 (5 min, replicate R3) | TIC value of compound, 15 min, R1 (15 min, replicate R1) | TIC value of compound, 15 min, R3 (15 min, replicate R3) | TIC value of compound, 30 min, R1 (30 min, replicate R1) | TIC value of compound, 30 min, R3 (30 min, replicate R3) | TIC value of compound, 60 min, R1 (60 min, replicate R1) | TIC value of compound, 60 min, R3 (60 min, replicate R3) | microsomal CLint [1] [µL/min/mg] | microsomal CLint [2] [µL/min/mg] | microsomal CLint [3] [µL/min/mg] | half-life [4] [min] | half-life [7] [min] | microsomal CLint [8] [µL/min/mg] | microsomal CLint [9] [µL/min/mg] | microsomal CLint [10] [µL/min/mg] | microsomal CLint [11] [µL/min/mg] | microsomal CLint [12] [µL/min/mg] | also measured
O=C1C[C@H]2CCCN2C(=O)[C@H](Cc2ccccc2)NC(=O)[C@@H](NC(=O)c2ccc(Cl)s2)CSCc2cccc(n2)CSCCN1 [compound 31] | 21675652 | 21375886 | 16129690 | 21185792 | 14173175 | 14991116 | 10634659 | 9842710 | 4587256 | 4284596 | 53.6 | 48.6 | 49.4 | 25.9 | 27 ± 1 | 51 ± 2 | 50.6 | 53.6 | 48.6 | 49.4 | half-life [5]: 28.5 min; half-life [6]: 28 min
O=C1C[C@H]2CCCN2C(=O)[C@H](Cc2ccccc2)NC(=O)[C@@H](NC(=O)c2ccc(Cl)s2)CCSCc2cccc(n2)CSCCN1 [compound 33] | 21264470 | 18840495 | 18437497 | 18024716 | 13918481 | 11416589 | 9967302 | 7497114 | 4659151 | 3520876 | 52.1 | 71 | 58.8 | 26.6 | 23 ± 3 | 61 ± 8 | 60.6 | 52.1 | 71 | 58.8 | half-life [5]: 19.5 min; half-life [6]: 23.6 min
O=C1C[C@H]2CCCN2C(=O)[C@H](Cc2ccccc2)NC(=O)[C@@H](NC(=O)c2ccc(Cl)s2)CCSC/C=C/CSCCN1 [compound 34] | 12429096 | 11063826 | 11351623 | 10806046 | 7245055 | 6630237 | 4320756 | 3830533 | 1228797 | 1213522 | 69.7 | 85.6 | 66.4 | 19.9 | 19 ± 2 | 74 ± 8 | 73.9 | 69.7 | 85.6 | 66.4 | half-life [5]: 16.2 min; half-life [6]: 20.9 min
O=C1C[C@H]2CCCN2C(=O)[C@H](Cc2ccccc2)NC(=O)[C@@H](NC(=O)c2ccc(Cl)s2)CCCSCc2cccc(n2)CSCCN1 [compound 35] | 23625921 | 25801224 | 20860918 | 23019710 | 12779197 | 13375542 | 7192264 | 5638202 | 1618321 | 1784495 | 79 | 90.4 | 88.3 | 17.6 | 16.2 ± 1 | 86 ± 5 | 85.9 | 79 | 90.3 | 88.3 | half-life [5]: 15.3 min; half-life [6]: 15.7 min
O=C1C[C@H]2CCCN2C(=O)[C@H](Cc2ccccc2)NC(=O)[C@@H](NC(=O)c2ccc(Cl)s2)CCCSC/C=C/CSCCN1 [compound 36] | 9960125 | 9584351 | 8960155 | 9591941 | 6029519 | 6211335 | 3459884 | 2699618 | 607530 | 705245 | – | – | – | – | 21 ± 1 | 67 ± 4 | 67.3 | 70.7 | 61.9 | 69.3 | microsomal CLint [13]: 70.7 µL/min/mg; microsomal CLint [14]: 61.9 µL/min/mg; microsomal CLint [15]: 69.3 µL/min/mg; half-life [16]: 19.6 min; half-life [17]: 22.4 min; half-life [18]: 20 min
O=C1CSCCC[C@H](NC(=O)c2ccc(Cl)s2)C(=O)N[C@@H](Cc2ccccc2)C(=O)N2CCC[C@@H]2CC(=O)NCCSC1 [compound 37] | 9508843 | 9444065 | 8851267 | 7487448 | 4635928 | 4037534 | 2932536 | 1896940 | 631769 | 473870 | – | – | – | – | 14.7 ± 1.7 | 95 ± 11 | 95.4 | 81.1 | 98 | 107 | microsomal CLint [13]: 81.1 µL/min/mg; microsomal CLint [14]: 98 µL/min/mg; microsomal CLint [15]: 107 µL/min/mg; half-life [16]: 17.1 min; half-life [17]: 14.2 min; half-life [18]: 12.9 min
O=C1C[C@H]2CCCN2C(=O)[C@H](Cc2ccccc2)NC(=O)[C@@H](NC(=O)c2ccc(Cl)s2)CSC/C=C/CSCCN1 [peptide 32] | 4102350 | 4260631 | 2223511 | 2686035 | 283425 | 435364 | 0 | 35161 | 0 | 0 | 278 | 276 | 234 | 4.98 | 5.3 ± 0.4 | – | 263 | 278 | 276 | 234 | TIC value of compound, metabolic stability RLM (0 min): 4102350 (2×) and 4260631; TIC value of compound, metabolic stability RLM (5 min): 2223511 and 2018425 and 2686035; TIC value of compound, metabolic stability RLM (15 min): 283425 and 185564 and 435364; TIC value of compound, metabolic stability RLM (30 min): 0 (2×) and 35161; TIC value of compound, metabolic stability RLM (60 min): 0; half-life (Half Life (min) in RLMs (single replicates R1–R3), Fig. 5e source data): 4.98 min; half-life [5]: 5.02 min; half-life [6]: 5.93 min; microsomal CLint (microsomes, Clearance (CL) in RLMs, calculated from half-life, mean and s.d. of three measurements): 260 ± 20 µL/min/mg; half-life (microsomes, Half Life, RLM, individual replicates R1-R3): 4.98 min
